Test results as given in patent US8518944B2, “Compounds as casein kinase inhibitors” (Pfizer Inc., priority 2009, dated 2013).
Counter-ions that a name gives are not always drawn.

What was measured:
CK1δ = CK1δ (Homo sapiens, UniProt P48730); experiment: CK1δ kinase assay (Kinase-Glo luminescence); assay type: biochemical; details: ATP 10 μM, CK1δ enzyme 2 nM, peptide substrate 42 μM, 25° C., 85 minutes; values marked * are geometric mean of 5-16 determinations; read-out: CKIδ IC50 (nM), geometric mean of 2-4 determinations
Sequence of CK1δ (P48730 whole entry): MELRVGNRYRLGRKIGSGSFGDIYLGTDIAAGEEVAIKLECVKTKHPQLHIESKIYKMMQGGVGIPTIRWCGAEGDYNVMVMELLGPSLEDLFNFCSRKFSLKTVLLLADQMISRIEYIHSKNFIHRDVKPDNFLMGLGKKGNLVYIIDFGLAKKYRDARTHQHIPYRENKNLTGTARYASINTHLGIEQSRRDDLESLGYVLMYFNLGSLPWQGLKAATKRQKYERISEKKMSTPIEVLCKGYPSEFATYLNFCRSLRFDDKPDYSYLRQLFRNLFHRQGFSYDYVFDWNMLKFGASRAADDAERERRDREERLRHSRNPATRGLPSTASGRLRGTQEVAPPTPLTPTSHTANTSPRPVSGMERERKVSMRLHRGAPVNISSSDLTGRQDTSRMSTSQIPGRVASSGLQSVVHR
Method: The CK1δ kinase assay was performed in a standard buffer containing ATP at 10 μM, CK1δ enzyme at 2 nM, and the peptide substrate PLSRTLpSVASLPGL at 42 μM. The reaction was incubated at 25° C. for 85 minutes. Enzyme inhibition was performed in the presence of either 1 μL of CK1δ inhibitor, or 4% DMSO. Detection of luminescent output on a PerkinElmer EnVision plate reader (PerkinElmer, Waltham, Mass.) was performed as described for the Kinase-Glo Assay (Promega).

CK1ε wild type enzyme = CK1ε wild type enzyme (Homo sapiens, UniProt P49674); experiment: CK1ε kinase assay (Kinase-Glo luminescence); assay type: biochemical; details: ATP 10 μM, CK1ε wild type enzyme 2.5 nM, peptide substrate 42 μM, 25° C., 70 minutes; values marked * are geometric mean of 5-16 determinations; read-out: CKIε IC50 (nM), geometric mean of 2-4 determinations
Sequence of CK1ε wild type enzyme (P49674 whole entry): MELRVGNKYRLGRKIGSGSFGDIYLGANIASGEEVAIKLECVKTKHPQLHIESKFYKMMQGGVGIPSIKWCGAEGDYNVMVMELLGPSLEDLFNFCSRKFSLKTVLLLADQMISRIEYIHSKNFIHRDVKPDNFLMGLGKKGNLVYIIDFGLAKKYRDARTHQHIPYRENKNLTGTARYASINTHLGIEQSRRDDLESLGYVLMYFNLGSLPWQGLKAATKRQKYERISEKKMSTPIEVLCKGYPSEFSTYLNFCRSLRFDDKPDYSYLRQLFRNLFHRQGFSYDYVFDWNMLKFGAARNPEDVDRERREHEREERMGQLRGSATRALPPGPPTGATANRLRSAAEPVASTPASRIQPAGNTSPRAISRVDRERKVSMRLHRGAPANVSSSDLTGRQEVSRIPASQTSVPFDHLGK
Method: The CK1ε kinase assay was performed in a standard buffer containing ATP at 10 μM, CK1ε wild type enzyme at 2.5 nM, and 42 μM concentration of the peptide substrate PLSRTLpSVASLPGL (Flotow et al., 1990). The reaction was incubated at 25° C. for 70 minutes. Enzyme inhibition was measured in the presence of 1 μL of the CK1ε inhibitor, or 4% DMSO. Detection was carried out as described for the Kinase-Glo Assay (Promega). Luminescent output was measured on the PerkinElmer EnVision plate reader (PerkinElmer, Waltham, Mass.).

Structure (SMILES)	IC50 (CK1δ) [nM]	IC50 (CK1ε wild type enzyme) [nM]
COc1ncccc1CN1CCC(n2cnc(-c3ccc(F)cc3)c2-c2ccnc(N)n2)CC1 [Example 26, 4-[4-(4-fluorophenyl)-1-{1-[(2-methoxypyridin-3-yl)methyl]piperidin-4-yl}-1H-imidazol-5-yl]pyrimidin-2-amine, trifluoroacetate salt]	51.9	238
Nc1nccc(-c2c(-c3ccc(F)cc3)ncn2C2CCN(Cc3ccnc(C4CC4)n3)CC2)n1 [Example 28, 4-[1-{1-[(2-cyclopropylpyrimidin-4-yl)methyl]piperidin-4-yl}-4-(4-fluorophenyl)-1H-imidazol-5-yl]pyrimidin-2-amine, trifluoroacetate salt]	54.9	351
Cc1cccc(CN2CCC(n3cnc(-c4ccc(F)cc4)c3-c3ccnc(N)n3)C2)n1 (stereo not drawn) [Example 30, 4-[4-(4-fluorophenyl)-1-{1-[(6-methylpyridin-2-yl)methyl]pyrrolidin-3-yl}-1H-imidazol-5-yl]pyrimidin-2-amine]	91.6	266
Cc1cnc(CN2CCC(n3cnc(-c4ccc(F)cc4)c3-c3ccnc(N)n3)C2)c(F)c1 (stereo not drawn) [Example 31, 4-[1-{1-[(3-fluoro-5-methylpyridin-2-yl)methyl]pyrrolidin-3-yl}-4-(4-fluorophenyl)-1H-imidazol-5-yl]pyrimidin-2-amine]	47.6	165
Cc1cc(CN2CCC(n3cnc(-c4ccc(F)cc4)c3-c3ccnc(N)n3)C2)no1 (stereo not drawn) [Example 33, 4-[4-(4-fluorophenyl)-1-{1-[(5-methylisoxazol-3-yl)methyl]pyrrolidin-3-yl}-1H-imidazol-5-yl]pyrimidin-2-amine]	55.1	140
Nc1nccc(-c2c(-c3ccc(F)cc3)ncn2C2CCN(Cc3ccc4nccnc4c3)C2)n1 (stereo not drawn) [Example 35, 4-{4-(4-fluorophenyl)-1-[1-(quinoxalin-6-ylmethyl)pyrrolidin-3-yl]-1H-imidazol-5-yl}pyrimidin-2-amine]	67.8	170
Nc1nccc(-c2c(-c3ccc(F)cc3)ncn2C2CCN(Cc3cncc4ccccc34)C2)n1 (stereo not drawn) [Example 36, 4-{4-(4-fluorophenyl)-1-[1-(isoquinolin-4-ylmethyl)pyrrolidin-3-yl]-1H-imidazol-5-yl}pyrimidin-2-amine]	56.3	140

Continued, values first:

IC50 (CK1δ) [nM]	IC50 (CK1ε wild type enzyme) [nM]	Structure (SMILES)
84.3	393	COc1cc(CN2CCC(n3cnc(-c4ccc(F)cc4)c3-c3ccnc(N)n3)CC2)ccn1 [Example 25, 4-[4-(4-fluorophenyl)-1-{1-[(2-methoxypyridin-4-yl)methyl]piperidin-4-yl}-1H-imidazol-5-yl]pyrimidin-2-amine, trifluoroacetate salt]
17.6	83.2	Cc1ncc(CN2CCC(n3cnc(-c4ccc(F)cc4)c3-c3ccnc(N)n3)CC2)cn1 [Example 27, 4-[4-(4-fluorophenyl)-1-{1-[(2-methylpyrimidin-5-yl)methyl]piperidin-4-yl}-1H-imidazol-5-yl]pyrimidin-2-amine, trifluoroacetate salt]
38.8	268	Cc1cc(CN2CCC(n3cnc(-c4ccc(F)cc4)c3-c3ccncn3)CC2)no1 [Example 29, 4-[4-(4-fluorophenyl)-1-{1-[(5-methylisoxazol-3-yl)methyl]piperidin-4-yl}-1H-imidazol-5-yl]pyrimidine]
61.1	150	Cc1ncccc1CN1CCC(n2cnc(-c3ccc(F)cc3)c2-c2ccnc(N)n2)C1 (stereo not drawn) [Example 32, 4-[4-(4-fluorophenyl)-1-{1-[(2-methylpyridin-3-yl)methyl]pyrrolidin-3-yl}-1H-imidazol-5-yl]pyrimidin-2-amine]
76.6	211	Nc1nccc(-c2c(-c3ccc(F)cc3)ncn2C2CCN(Cc3ccncc3)C2)n1 (stereo not drawn) [Example 34, 4-{4-(4-fluorophenyl)-1-[1-(pyridin-4-ylmethyl)pyrrolidin-3-yl]-1H-imidazol-5-yl}pyrimidin-2-amine]
